Data on two compounds can be found in paper PMC9469100, “Turning Nonselective Inhibitors of Type I Protein Arginine Methyltransferases into Potent and Selective Inhibitors of Protein Arginine Methyltransferase 4 through a Deconstruction–Reconstruction and Fragment-Growing Approach” (Journal of Medicinal Chemistry, 2022).

Like-named read-outs stand apart in the source and are kept apart here.

Test [1] addresses T1, PRMT4 (Homo sapiens, UniProt Q86X55).
T1 sequence (Q86X55 2-608): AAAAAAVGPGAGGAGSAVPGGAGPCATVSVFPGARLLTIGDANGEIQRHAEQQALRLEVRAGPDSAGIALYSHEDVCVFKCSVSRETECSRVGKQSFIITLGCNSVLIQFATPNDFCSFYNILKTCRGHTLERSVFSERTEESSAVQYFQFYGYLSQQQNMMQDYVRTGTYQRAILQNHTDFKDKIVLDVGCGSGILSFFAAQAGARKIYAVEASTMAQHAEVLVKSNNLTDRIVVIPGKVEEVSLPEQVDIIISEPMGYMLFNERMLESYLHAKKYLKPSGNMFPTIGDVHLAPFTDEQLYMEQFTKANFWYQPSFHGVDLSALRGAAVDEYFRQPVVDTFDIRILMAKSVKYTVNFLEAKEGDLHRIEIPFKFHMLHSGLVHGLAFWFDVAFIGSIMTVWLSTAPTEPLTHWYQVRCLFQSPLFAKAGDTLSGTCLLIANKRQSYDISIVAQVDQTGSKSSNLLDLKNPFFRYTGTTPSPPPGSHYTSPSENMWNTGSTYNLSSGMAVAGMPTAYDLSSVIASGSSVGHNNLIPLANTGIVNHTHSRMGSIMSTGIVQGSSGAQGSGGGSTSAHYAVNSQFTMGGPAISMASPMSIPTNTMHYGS
Description: Radioisotope-based filter-binding (HotSpot) assay, PRMT4. Particulars: for LE: ligand efficiency for PRMT4 calculated from IC50 as a surrogate for KD; for selectivity index for PRMT4 vs other PRMTs: PRMT1: ratio IC50 PRMT1 / IC50 PRMT4, rounded to nearest integer; for selectivity index for PRMT4 vs other PRMTs: PRMT3: ratio IC50 PRMT3 / IC50 PRMT4; for selectivity index for PRMT4 vs other PRMTs: PRMT5: ratio IC50 PRMT5 / IC50 PRMT4; for selectivity index for PRMT4 vs other PRMTs: PRMT6: ratio IC50 PRMT6 / IC50 PRMT4; for selectivity index for PRMT4 vs other PRMTs: PRMT7: ratio IC50 PRMT7 / IC50 PRMT4; for selectivity index for PRMT4 vs other PRMTs: PRMT8: ratio IC50 PRMT8 / IC50 PRMT4; for IC50: radioisotope-based filter assay; for SI PRMT1 (Figure 5 heatmap): selectivity index for PRMT4 over PRMT1; for SI PRMT3 (Figure 5 heatmap): selectivity index for PRMT4 over PRMT3; for SI PRMT5 (Figure 5 heatmap): selectivity index for PRMT4 over PRMT5; for SI PRMT6 (Figure 5 heatmap): selectivity index for PRMT4 over PRMT6; for SI PRMT7 (Figure 5 heatmap): selectivity index for PRMT4 over PRMT7; for SI PRMT8 (Figure 5 heatmap): selectivity index for PRMT4 over PRMT8.
Description: (§1) Then, ^3H-SAM (final concentration 1 μM) was delivered into the reaction mixture to initiate the reaction. After incubation for 60 min at 30 °C, the reaction mixture was delivered to filter paper for detection (as assessed by scintillation). Data were analyzed using Excel and GraphPad Prism 6.0 software (GraphPad Software Inc., San Diego, CA) for IC50 curve fits using sigmoidal dose vs response-variable slope (four parameters) equations.

Test [2] deals with PRMT3 (Homo sapiens, UniProt O60678). Description: Radioisotope-based filter-binding (HotSpot) assay, PRMT3. Conditions: radioisotope-based filter assay.
Description: as §1
The target in test [3] is PRMT1 (Homo sapiens, UniProt Q99873). Description: Radioisotope-based filter-binding (HotSpot) assay, PRMT1. Conditions: for IC50: radioisotope-based filter assay.
Description: as §1
The target of test [4] is ΔN(1–60)-PRMT8 (Homo sapiens, UniProt Q9NR22). Briefly: Radioisotope-based filter-binding (HotSpot) assay, PRMT8.
Description: as §1
The target in test [5] is PRMT6 (Homo sapiens, UniProt Q96LA8). Description: Radioisotope-based filter-binding (HotSpot) assay, PRMT6. Conditions: read-out: IC50 (μM) PRMT6; radioisotope-based filter assay; 5 μM GST-GAR; 1 μM 3H-SAM.
Description: as §1
For test [6], the target named is T2, PRMT7 (Homo sapiens, UniProt Q9NVM4).
T2 sequence (Q9NVM4 2-692): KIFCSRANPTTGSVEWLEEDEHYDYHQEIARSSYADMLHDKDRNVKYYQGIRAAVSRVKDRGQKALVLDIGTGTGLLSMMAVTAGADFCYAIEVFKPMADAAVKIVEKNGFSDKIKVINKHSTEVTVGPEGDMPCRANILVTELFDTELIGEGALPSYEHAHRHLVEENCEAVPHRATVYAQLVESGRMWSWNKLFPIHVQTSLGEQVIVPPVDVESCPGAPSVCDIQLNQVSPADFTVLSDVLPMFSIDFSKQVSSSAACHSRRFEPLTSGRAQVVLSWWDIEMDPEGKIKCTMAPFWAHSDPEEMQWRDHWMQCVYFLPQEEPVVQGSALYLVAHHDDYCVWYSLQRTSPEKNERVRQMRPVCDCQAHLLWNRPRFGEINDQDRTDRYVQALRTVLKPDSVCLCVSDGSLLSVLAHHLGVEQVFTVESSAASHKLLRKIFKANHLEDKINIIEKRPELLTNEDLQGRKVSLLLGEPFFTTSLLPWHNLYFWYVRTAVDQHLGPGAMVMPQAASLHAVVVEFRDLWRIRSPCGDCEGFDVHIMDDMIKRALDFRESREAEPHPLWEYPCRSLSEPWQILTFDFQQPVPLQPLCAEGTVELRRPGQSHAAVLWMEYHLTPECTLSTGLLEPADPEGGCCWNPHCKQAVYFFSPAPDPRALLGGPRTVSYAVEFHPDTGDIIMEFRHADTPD
Description: Radioisotope-based filter-binding (HotSpot) assay, PRMT7. Conditions: read-out: IC50 (μM) PRMT7; radioisotope-based filter assay; 5 μM GST-GAR; 1 μM 3H-SAM.
Description: as §1

The mark [7] stands for this setting: on increasing the linker between 4-hydroxy-2-naphthoate and guanidine (values equal the ratio to the IC50 of 12c).
The mark [8] stands for this setting: read-out: IC50 (μM) PRMT4, 5 μM histone H3, 1 μM 3H-SAM.
Setting [9] is: read-out: IC50 (μM) PRMT3, 5 μM histone H4, 1 μM 3H-SAM.
Where [10] appears, read: read-out: IC50 (μM) PRMT1, 5 μM histone H4, 1 μM 3H-SAM.
[11] abbreviates: read-out: IC50 (μM) PRMT8, 5 μM histone H4, 1 μM 3H-SAM.

ΔN(1–60)-PRMT8, sequence (Q9NR22 61-394, stated change not applied): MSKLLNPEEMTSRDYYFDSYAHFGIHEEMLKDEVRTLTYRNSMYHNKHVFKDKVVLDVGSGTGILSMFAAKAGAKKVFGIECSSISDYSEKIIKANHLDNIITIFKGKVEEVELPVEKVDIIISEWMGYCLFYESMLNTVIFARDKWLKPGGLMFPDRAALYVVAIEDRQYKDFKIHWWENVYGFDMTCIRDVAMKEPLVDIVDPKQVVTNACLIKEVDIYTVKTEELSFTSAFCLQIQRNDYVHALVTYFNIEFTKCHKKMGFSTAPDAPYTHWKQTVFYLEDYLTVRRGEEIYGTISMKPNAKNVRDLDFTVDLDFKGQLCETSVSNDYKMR
PRMT3, sequence (O60678 2-531): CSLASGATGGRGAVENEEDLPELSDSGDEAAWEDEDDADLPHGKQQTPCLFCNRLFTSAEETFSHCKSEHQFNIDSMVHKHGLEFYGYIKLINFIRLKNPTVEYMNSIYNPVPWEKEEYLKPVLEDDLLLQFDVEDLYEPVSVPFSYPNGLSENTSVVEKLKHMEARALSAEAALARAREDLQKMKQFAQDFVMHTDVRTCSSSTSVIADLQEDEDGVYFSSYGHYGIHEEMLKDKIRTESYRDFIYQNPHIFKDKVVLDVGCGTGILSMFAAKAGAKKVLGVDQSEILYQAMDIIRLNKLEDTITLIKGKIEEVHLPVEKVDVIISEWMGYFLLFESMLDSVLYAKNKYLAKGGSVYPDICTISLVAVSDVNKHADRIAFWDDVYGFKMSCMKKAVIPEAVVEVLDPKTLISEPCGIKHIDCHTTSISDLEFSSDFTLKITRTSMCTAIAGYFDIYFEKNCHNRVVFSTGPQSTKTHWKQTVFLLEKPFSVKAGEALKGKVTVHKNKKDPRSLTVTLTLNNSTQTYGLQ
PRMT1, sequence (Q99873 2-371): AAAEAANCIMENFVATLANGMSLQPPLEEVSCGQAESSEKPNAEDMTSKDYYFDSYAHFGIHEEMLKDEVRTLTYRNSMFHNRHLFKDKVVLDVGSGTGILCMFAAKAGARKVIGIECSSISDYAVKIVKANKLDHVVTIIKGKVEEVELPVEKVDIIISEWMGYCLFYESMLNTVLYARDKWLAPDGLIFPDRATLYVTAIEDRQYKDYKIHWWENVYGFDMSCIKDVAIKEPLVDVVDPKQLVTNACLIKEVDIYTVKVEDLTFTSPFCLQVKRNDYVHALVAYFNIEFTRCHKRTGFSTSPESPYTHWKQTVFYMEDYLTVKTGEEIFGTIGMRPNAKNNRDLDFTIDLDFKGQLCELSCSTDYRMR
PRMT6, sequence (Q96LA8 2-375): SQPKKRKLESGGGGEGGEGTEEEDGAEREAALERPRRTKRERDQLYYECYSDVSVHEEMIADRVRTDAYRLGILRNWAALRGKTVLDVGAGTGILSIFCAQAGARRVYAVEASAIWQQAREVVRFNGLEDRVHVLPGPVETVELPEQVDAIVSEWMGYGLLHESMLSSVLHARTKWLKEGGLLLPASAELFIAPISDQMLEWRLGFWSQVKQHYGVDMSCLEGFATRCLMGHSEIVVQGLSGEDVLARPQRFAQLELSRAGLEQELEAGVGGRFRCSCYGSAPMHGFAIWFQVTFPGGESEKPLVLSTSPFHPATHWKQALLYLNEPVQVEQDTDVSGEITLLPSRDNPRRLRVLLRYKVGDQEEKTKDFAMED

As to `COC(=O)c1cc(O)c2cc(NC(=O)NCCCCCCCNC(=N)NC[C@H]3O[C@@H](n4cnc5c(N)ncnc54)[C@H](O)[C@@H]3O)ccc2c1` [12e, Methyl 6-(3-(7-(3-(((2R,3S,4R,5R)-5-(6-Amino-9H-purin-9-yl)-3,4-dihydroxytetrahydrofuran-2-yl)methyl)guanidino)heptyl)ureido)-4-hydroxy-2-naphthoate], in test [1], the LE was 0.20, the “selectivity index for PRMT4 vs other PRMTs: PRMT1” value is given as 15, the “selectivity index for PRMT4 vs other PRMTs: PRMT3” value is 70 and the “selectivity index for PRMT4 vs other PRMTs: PRMT5” value is listed as 19. Besides, in test [1], the “selectivity index for PRMT4 vs other PRMTs: PRMT6” value is 202, the “selectivity index for PRMT4 vs other PRMTs: PRMT7” value came to 4, the “selectivity index for PRMT4 vs other PRMTs: PRMT8” value worked out at 33 and the “SI PRMT1 (Figure 5 heatmap)” value amounted to 15 fold. Moreover, in test [1], the “SI PRMT3 (Figure 5 heatmap)” value came out at 70 fold, the “SI PRMT5 (Figure 5 heatmap)” value is 19 fold, the “SI PRMT6 (Figure 5 heatmap)” value was determined as 202 fold and the “SI PRMT7 (Figure 5 heatmap)” value came to 4 fold. For the same compound, the “SI PRMT8 (Figure 5 heatmap)” value in test [1] was 33 fold. Besides, the “gain in the inhibitory activity against PRMT4” value in test [1] (setting [7]) came to 2.4 fold. For the same compound, the half-maximal inhibitory concentration (IC50) (usually the concentration at which inhibition is half-maximal) in test [1] (setting [8]) is 0.176 µM. In test [2] (setting [9]), the IC50 was 12.4 µM. For the same compound, in test [2] (read-out: IC50 PRMT3 (Figure 5 heatmap)), the IC50 worked out at 12.4 µM. The “gain in the inhibitory activity against PRMT1” value in test [3] (setting [7]) was 3.2 fold. The IC50 in test [3] (setting [10]) is 2.6 µM. For the same compound, the IC50 in test [3] (read-out: IC50 PRMT1 (Figure 5 heatmap)) stood at 2.6 µM. In test [4] (setting [11]), the IC50 was determined as 5.84 µM. Also, in test [5], the IC50 came out at 35.6 µM. Moreover, the IC50 in test [6] was 0.631 µM.

On to `COC(=O)c1cc(O)c2cc(NC(=O)NCCCCCNC(=N)NC[C@H]3O[C@@H](n4cnc5c(N)ncnc54)[C@H](O)[C@@H]3O)ccc2c1` [12c, Methyl 6-(3-(5-(3-(((2R,3S,4R,5R)-5-(6-Amino-9H-purin-9-yl)-3,4-dihydroxytetrahydrofuran-2-yl)methyl)guanidino)pentyl)ureido)-4-hydroxy-2-naphthoate], for which, in test [1], the LE was 0.19, the “selectivity index for PRMT4 vs other PRMTs: PRMT1” value amounted to 20, the “selectivity index for PRMT4 vs other PRMTs: PRMT3” value stood at 51 and the “selectivity index for PRMT4 vs other PRMTs: PRMT5” value stood at 122. In test [1], the “selectivity index for PRMT4 vs other PRMTs: PRMT6” value is recorded as above 238, the “selectivity index for PRMT4 vs other PRMTs: PRMT7” value amounted to 0.52, the “selectivity index for PRMT4 vs other PRMTs: PRMT8” value was found to be 14 and the “SI PRMT1 (Figure 5 heatmap)” value was determined as 20 fold. Besides, in test [1], the “SI PRMT3 (Figure 5 heatmap)” value was determined as 51 fold, the “SI PRMT5 (Figure 5 heatmap)” value was determined as 122 fold, the “SI PRMT6 (Figure 5 heatmap)” value is above 238 fold and the “SI PRMT7 (Figure 5 heatmap)” value was found to be 0.52 fold. In addition, in test [1], the “SI PRMT8 (Figure 5 heatmap)” value stood at 14 fold. Also, the IC50 in test [1] (setting [8]) was 0.42 µM. Moreover, the IC50 in test [1] (read-out: IC50 PRMT4 (Figure 5 heatmap)) was found to be 0.421 µM. Besides, the IC50 in test [2] (setting [9]) stood at 21.3 µM. In test [3] (setting [10]), the IC50 is 8.46 µM. Also, in test [4] (setting [11]), the IC50 was 5.87 µM. Further, in test [4] (read-out: IC50 PRMT8 (Figure 5 heatmap)), the IC50 stood at 5.87 µM. The IC50 in test [5] was above 100 µM. For the same compound, the IC50 in test [6] stood at 0.22 µM.
